Reference: paper PMC10580319, “Quantitative Imaging of the Action of vCPP2319, an Antimicrobial Peptide from a Viral Scaffold, against Staphylococcus aureus Biofilms of a Clinical Isolate” (ACS Infectious Diseases, 2023)
Where no end group is shown, it is not given here.

Columns and labels:
[1] = in vitro; type: in vitro ADME, human; conditions: 37 °C
Description: vCPP2319 at final concentrations of 50, 100, 200, and 500 μM was incubated with 25% (v/v in H2O) human serum (Sigma-Aldrich) at 37 °C, with gentle swirling. At different time points (0, 1, 5, 10, 30, 60 120, 360, and 1440 min), 120 μL aliquots were taken and treated with 20 μL of 5% perchloric acid (v/v in H2O) for 30 min at 4 °C, to stop the proteolytic reaction. To determine the maximum peptide intensity (100% intact peptide; t0), serum proteins were first precipitated, followed by the addition of the peptide. Controls of serum without peptide and peptide not incubated in serum were also included in the assay. Samples were next centrifuged at 13 000g for 10 min to remove serum proteins. The supernatants were analyzed by reversed-phase HPLC (RP-HPLC) and LC–mass spectrometry (LC-MS). The percentage of intact peptide was calculated by RP-HPLC peak integration, expressed as percent of the amount at t0, and data were fitted to a monoexponential decay model using GraphPad Prism 7.0 to estimate the peptide half-life (t1/2). Analytical RP-HPLC was performed on a LC-20AD instrument (Shimadzu, Kyoto, Japan) equipped with a Luna C18 column (4.6 × 50 mm, 3 μm; Phenomenex, Torrance, CA, USA) using linear gradients of solvent B (0.036% (v/v) trifluoroacetic acid (TFA) in acetonitrile (ACN)) into A (0.045% (v/v) TFA in H2O) over 15 min, at a flow rate of 1 mL/min and UV detection at 220 nm. MS analysis was performed on an LC-MS 2010EV instrument (Shimadzu) fitted with an XBridge C18 column (4.6 mm × 150 mm, 3.5 μm, Waters, Cerdanyola del Valles, Spain), eluting with linear gradients of F (0.08% (v/v) formic acid [FA] in ACN) into E (0.1% (v/v) FA in H2O) over 15 min at 1 mL/min flow rate.[45]
1 - vCPP2319 stability in human serum
Figure S1 – vCPP2319 stability in human serum. Variable concentrations of the peptide were incubated with 25% (v/v in H2O) human serum for 0, 30, 60 and 120 min.
The intact peptide was separated from degradation products by HPLC using a 0 – 95% ACN gradient over 15 min. Afterwards, the percentage of intact peptide (Figure 1C) was calculated by chromatograms peak integration.
(1 picture or pasted object on this page, not shown here)

[2] = tested on: S. aureus clinical isolate biofilms; assay: AFM imaging, surface roughness (Rrms); type: cell-based, Staphylococcus aureus; conditions: 4 h; for cell surface roughness (Rrms): untreated 7.4 ± 1.9 nm; for biofilm surface roughness (Rrms): untreated 183 ± 23 nm
Description: AFM was used to visualize the topography and morphology of S. aureus biofilms in the absence and presence of vCPP2319. Bacterial suspensions at 1 × 10^6 CFU/mL were incubated in a sterile slide with a removable 12 well silicone chamber (Ibidi) for 24 h at 37 °C. After a washing step with MHB, preformed biofilms were incubated in the absence or presence of vCPP2319 at 25 or 50 μM, for 4 h at 37 °C. Untreated and treated biofilms were then washed once with sterile Milli-Q water and incubated with 0.1% (v/v) glutaraldehyde (Sigma-Aldrich) for 4 h at room temperature. Afterward, each sample was washed twice with sterile Milli-Q water and allowed to dry in air for 1 h at room temperature. AFM images were acquired by using a JPK NanoWizard IV (Berlin, Germany) mounted on a Zeiss Axiovert 200 inverted microscope (Oberkochen, Germany). The AFM head was equipped with a 15 μm z-range linearized piezoelectric scanner and an infrared laser. Images were acquired in air and in intermittent contact mode using uncoated silicon ACL cantilevers from AppNano (Mountain View, CA, USA) with typical resonance frequencies of 200–400 kHz and spring constant of 13–77 N/m. Scan speeds ranged between 0.2 and 0.4 Hz and total scan areas of 5 × 5 μm were imaged. Height and error images were recorded. Height images reflect the topography of the sample. Error images are generated by the deflection of the cantilever as it bends while interacting with the sample and are adequate to improve resolution on the edges of objects imaged by AFM. For each experiment, three different areas were imaged. The surface roughness was defined as the root-mean-square roughness (Rrms)[52] and it was obtained from AFM height images using Gwyddion software version 2.56, based on the following equation after compensation for bacterial curvature: [drawing 3] 3 where N is the number of data points and zi is the height deviation of i-th point from a mean line.[53] For the biofilm surface roughness, Rrms values were calculated from the total imaged area of the biofilm, while for the cell surface roughness, Rrms values were calculated from a line of cells in three different regions of each image of untreated and peptide-treated biofilms. The final Rrms values are the averages of all measurements.

**Q.** Which results are given for WRRRYRRWRRRRRWRRRPRR-NH2 [vCPP2319]?
**A.** half-life at 50 μM ([1]; 50 μM peptide, 25% (v/v in H2O) human serum, RP-HPLC peak integration, monoexponential decay fit, 95% CI 139–401, read-out: half-life (t1/2) in human serum): 3.45 h; half-life at 100 μM ([1]; 100 μM peptide, 25% (v/v in H2O) human serum, RP-HPLC peak integration, monoexponential decay fit, 95% CI 234–542, read-out: half-life (t1/2) in human serum): 5.43 h; half-life at 200 μM ([1]; 200 μM peptide, 25% (v/v in H2O) human serum, RP-HPLC peak integration, monoexponential decay fit, 95% CI 327–490, read-out: half-life (t1/2) in human serum): 6.53 h; half-life at 500 μM ([1]; 500 μM peptide, 25% (v/v in H2O) human serum, RP-HPLC peak integration, monoexponential decay fit, 95% CI 368–2107, read-out: half-life (t1/2) in human serum): 10.4 h; remaining at 1 h ([1]; after 1 h incubation, all concentrations studied (50, 100, 200, 500 μM), 25% (v/v) human serum, RP-HPLC, read-out: intact peptide remaining): > 60%; cell surface roughness (Rrms) ([2]; 25 μM): 13 ± 3 nm; biofilm surface roughness (Rrms) ([2]; 25 μM): 303 ± 93 nm; cell surface roughness (Rrms) ([2]; 50 μM): 20 ± 5 nm; biofilm surface roughness (Rrms) ([2]; 50 μM): 429 ± 142 nm
